Results as given in the NIST ThermoML archive (doi:10.1016/j.fluid.2007.06.008).
Numbers after ± are expanded uncertainties.

Legend:
[1] = refractive index (Na D-line) (dimensionless); details: 298.15 K; 101.33 kPa; Liquid; Standard Abbe refractometry
[2] = Liquid; for mass density: 101.33 kPa; for Normal boiling temperature: Ebulliometric method (Recirculating still)

Row | SMILES | refractive index [1] | mass density ([2]; 303.15 K) | Normal boiling temperature [2] | mass density ([2]; 298.15 K)
1 | CC(C)(C)O [2-methylpropan-2-ol] | 1.3851 ± 0.0005 | 775.4 ± 0.66 kg/m3 | 82.18 ± 0.1 °C | 
2 | CCC(C)CC [3-methylpentane] | 1.3744 ± 0.0005 |  | 63.2 ± 0.1 °C | 659.62 ± 1.4 kg/m3
3 | CCO [ethanol] | 1.3598 ± 0.0007 |  | 78.26 ± 0.1 °C | 785.04 ± 0.5 kg/m3
4 | CC1CCCCC1 [methylcyclohexane] | 1.4208 ± 0.0005 |  | 100.81 ± 0.1 °C | 764.92 ± 1.1 kg/m3
